The values below come from patent US11230532B2, “Pyrimidines and variants thereof, and uses therefor” (Afferent Pharmaceuticals Inc., priority 2016, dated 2022).

Where only a bound is given, the exact number is not on record here.

The target of assay [1] is T1, human P2X3 receptor (homomeric P2X3 channels) (Homo sapiens, UniProt P56373).
T1 construct: expressed in transfected cells; host or cells: HEK293 human embryonic kidney cells (HEK-hP2X3)
T1 sequence (P56373 1-397): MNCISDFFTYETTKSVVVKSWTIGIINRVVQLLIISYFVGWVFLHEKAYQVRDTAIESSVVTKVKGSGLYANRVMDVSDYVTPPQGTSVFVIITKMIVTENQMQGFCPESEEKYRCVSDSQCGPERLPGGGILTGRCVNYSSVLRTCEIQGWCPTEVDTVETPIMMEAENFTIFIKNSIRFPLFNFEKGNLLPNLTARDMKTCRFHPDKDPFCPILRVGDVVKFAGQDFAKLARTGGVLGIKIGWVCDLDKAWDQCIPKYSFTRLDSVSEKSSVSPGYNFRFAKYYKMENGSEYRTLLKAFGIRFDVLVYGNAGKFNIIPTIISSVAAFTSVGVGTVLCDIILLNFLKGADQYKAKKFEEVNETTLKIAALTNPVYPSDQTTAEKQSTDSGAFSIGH
The assay can be described thus: FlexStation calcium fluorescence assay, homomeric P2X3 channels (HEK-hP2X3 cells). The settings on record: for Selectivity, X = S: potency ratio P2X3 over P2X2/3; for IC50: HEK293 cells stably transfected with human P2X3, agonist 1 μM α,β-meATP, highest concentration tested 10 μM, read-out: Average pIC50 P2X3 (converted); for Selectivity P2X3/P2X2/3: potency ratio P2X3 over P2X2/3 from pIC50s. It counts as cell-based. How it is done:
(§1) 1321N1 human astrocytoma and HEK293 human embryonic kidney cells were stably transfected with human P2X2 and P2X3 receptor subunits to form heteromeric P2X2/3 channels and passaged in flasks. Additionally, HEK293 cells were stably transfected with human P2X3 receptor subunits to form homomeric P2X3 channels.
(§2) Approximately 24 hours before the FlexStation calcium fluorescence experiment, cells were released from their flasks, centrifuged and re-suspended in nutrient medium. The cells were aliquoted into black-wall, clear-bottom 96 well plates at a density of 25,000 cells per well and incubated overnight in a humidified, CO2-enriched (5%) atmosphere at 37° C.
(§3) On the day of the experiment, cells were washed with assay buffer (calcium- and magnesium-free Hank's balanced salt solution, 20 mM HEPES, 2 mM CaCl2; AB) and loaded with 4 μM Fluo-4 (P2X2/3) or Calcium 6 (Molecular Devices, according to manufacturer's instructions; P2X3) calcium-sensitive fluorescent dye in 100 μL AB.
(§4) After 1 hour of dye loading at 37° C., 1321N1-hP2X2/3 cells were washed two times with AB and test compound or vehicle added to each well in a total volume of 150 μL AB. HEK-hP2X3 cells were not washed because the Calcium 6 dye kit includes an extracellular dye that quenches unabsorbed Calcium 6 dye; test compound or vehicle were added directly to the assay plates to achieve the appropriate concentration of test compound in a total volume of 150 μL AB.
(§5) After 20 minutes incubation at RT and protected from light, the assay plates were loaded into the FlexStation microplate reader and baseline fluorescence measured with an excitation wavelength of 485 nm and emission wavelength readings centered at 525 nm (515 nm cut off).
(§6) The agonist was dispensed by the FlexStation during fluorescence measurement to construct agonist activation and antagonist inhibition curves. The final agonist concentration for inhibition was 1 μM α,β-meATP for P2X3 and 3 μM ATP for P2X2/3. Peak fluorescence was measured and curves generated using a four parameter nonlinear regression equation.

In assay [2] the target is T2, human P2X2/3 receptor (heteromeric P2X2/3 channels) (Homo sapiens, UniProt P56373+Q9UBL9).
T2 construct: expressed in transfected cells; host or cells: 1321N1 human astrocytoma cells (1321N1-hP2X2/3)
T2 sequence (P56373 1-397): T1 sequence (P56373 1-397)
T2 sequence (Q9UBL9 1-471): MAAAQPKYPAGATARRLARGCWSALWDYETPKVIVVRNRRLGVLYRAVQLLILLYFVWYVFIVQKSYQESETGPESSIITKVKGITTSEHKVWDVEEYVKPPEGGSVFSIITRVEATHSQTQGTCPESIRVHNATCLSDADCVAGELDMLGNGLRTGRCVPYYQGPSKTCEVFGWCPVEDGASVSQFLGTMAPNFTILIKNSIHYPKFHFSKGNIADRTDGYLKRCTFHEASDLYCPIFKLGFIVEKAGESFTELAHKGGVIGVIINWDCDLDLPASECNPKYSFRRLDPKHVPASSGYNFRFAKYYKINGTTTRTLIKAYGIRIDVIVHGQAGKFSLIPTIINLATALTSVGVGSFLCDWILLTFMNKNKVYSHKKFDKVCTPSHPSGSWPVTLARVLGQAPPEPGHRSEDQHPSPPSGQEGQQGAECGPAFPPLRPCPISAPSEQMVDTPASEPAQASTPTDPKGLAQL
The assay can be described thus: FlexStation calcium fluorescence assay, heteromeric P2X2/3 channels (1321N1-hP2X2/3 cells). The format is cell-based. The settings on record: agonist 3 μM ATP, highest concentration tested 10 μM, read-out: Average pIC50 P2X2/3 (converted). The protocol:
as §1, §2, §3, §4, §5, §6

Consider `COc1cc(Sc2cnc(N)nc2N)c(C(C)C)cc1OC` [A, X = S], for which the “Selectivity, X = S” value in assay [1] is on record as >100.
Consider `COc1cc(C(C)C)c(Sc2cnc(N)nc2N)cc1I` [B, X = S], for which the “Selectivity, X = S” value in assay [1] was determined as 48.
Regarding `COc1cc(C(C)C)c(Sc2cnc(N)nc2N)cc1S(C)(=O)=O` [C, X = S], the “Selectivity, X = S” value in assay [1] was >18.
Turning to `COc1cc(C(C)C)c([S+]([O-])c2cnc(N)nc2N)cc1OC` (stereo not drawn) [Comparative Compound 1, reference compound], the IC50 in assay [2] and in assay [1] was > 10 µM in each case.
In the case of `COc1cc(C(C)C)c(S(=O)(=O)c2cnc(N)nc2N)cc1OC` [Comparative Compound 2, reference compound], the IC50 in assay [2] and in assay [1] was > 10 µM each time.
Take `COc1cc(Sc2cnc(N)nc2N)c(C(C)C)cc1OC` [Compound 1]: in assay [1], the “Selectivity, X = S” value was “greater than 100” and the “Selectivity P2X3/P2X2/3” value is on record as >100.
As to `COc1cc(C(C)C)c(Sc2cnc(N)nc2N)cc1S(C)(=O)=O` [Compound 2], the “Selectivity P2X3/P2X2/3” value in assay [1] is >18.
Still for that read-out and setting: next, `COc1cc(C(C)C)c(Sc2cnc(N)nc2N)cc1S(N)(=O)=O` [Compound 3]: >67.
`COc1cc(C(C)C)c(Sc2cnc(N)nc2N)cc1I` [Compound 4]: the “Selectivity P2X3/P2X2/3” value in assay [1] turned out to be 48.
`C#Cc1cc(Sc2cnc(N)nc2N)c(C(C)C)cc1OC` [Compound 5]: the “Selectivity P2X3/P2X2/3” value in assay [1] is 97.
The same measure, in the same setting: in the case of `CC#Cc1cc(Sc2cnc(N)nc2N)c(C(C)C)cc1OC` [Compound 6] it was >13.
Same read-out and setting: in the case of `COc1cc(C(C)C)c(Sc2cnc(N)nc2N)cc1C` [Compound 7] it was >34; in that of `COc1cc(C(C)C)c(Sc2cnc(N)nc2N)cc1Br` [Compound 8], >47.
With `COc1cc(C(C)C)c(Sc2cnc(N)nc2N)cc1Cl` [Compound 9], the “Selectivity P2X3/P2X2/3” value in assay [1] is on record as >56.
On to `COc1cc(C(C)C)c(Sc2cnc(N)nc2N)cc1-c1nnn[nH]1` [Compound 11], for which the “Selectivity P2X3/P2X2/3” value in assay [1] was >58.
Turning to `COc1cc(C(C)C)c(Sc2cnc(N)nc2N)cc1C(=O)O` [Compound 12], in assay [1], the “Selectivity P2X3/P2X2/3” value was >2.
The same measure, in the same setting: in the case of `COc1cc(Oc2cnc(N)nc2N)c(C(C)C)nc1OC` [Compound 13] it was 5.2; in that of `COc1ccc(Oc2cnc(N)nc2N)c(C(C)C)n1` [Compound 14], >7.1; in that of `COc1nc(C(C)C)c(Oc2cnc(N)nc2N)cc1S(C)(=O)=O` [Compound 16], >145.
Same read-out and setting: next, `COc1nc(C(C)C)c(Oc2cnc(N)nc2N)cc1C#N` [Compound 17]: >10; `COc1nc(C(C)C)c(Oc2cnc(N)nc2N)cc1C(F)(F)F` [Compound 18]: 23.
`C#Cc1cc(Oc2cnc(N)nc2N)c(C(C)C)nc1OC` [Compound 19]: the “Selectivity P2X3/P2X2/3” value in assay [1] came out at 28.
Still for that read-out and setting: in the case of `COc1nc(C(C)C)c(Oc2cnc(N)nc2N)cc1S(N)(=O)=O` [Compound 20] it was 19.
Take `CCc1cc(OC)c(I)cc1Sc1cnc(N)nc1N` [Compound 21]: the IC50 was > 10 µM in assay [2] and 0.398 µM in assay [1]. Moreover, the “Selectivity P2X3/P2X2/3” value in assay [1] is on record as >24.
As for `CCc1cc(OC)c(S(C)(=O)=O)cc1Sc1cnc(N)nc1N` [Compound 22], in assay [2], the IC50 was > 10 µM. Besides, in assay [1], the IC50 was 3.98 µM and the “Selectivity P2X3/P2X2/3” value is listed as >3.
As to `COc1ccc(Sc2cnc(N)nc2N)c(C(C)C)n1` [Compound 23], the IC50 in assay [2] is > 10 µM. In addition, in assay [1], the IC50 was 3.98 µM and the “Selectivity P2X3/P2X2/3” value is reported as >3.
For `COc1nc(C(C)C)c(Sc2cnc(N)nc2N)cc1Br` [Compound 24], the IC50 in assay [2] was 0.398 µM. In assay [1], the IC50 is 0.1 µM and the “Selectivity P2X3/P2X2/3” value amounted to 4.
In the same order, the values of `COc1nc(C(C)C)c(Sc2cnc(N)nc2N)cc1S(C)(=O)=O` [Compound 25] are > 10 µM, 0.2 µM and >52.
For the molecule `COc1nc(C(C)C)c(Sc2cnc(N)nc2N)cc1C#N` [Compound 26], the IC50 in assay [2] is > 10 µM. Further, in assay [1], the IC50 was 7.94 µM and the “Selectivity P2X3/P2X2/3” value was >1.
For `COc1nc(C(C)C)c(Sc2cnc(N)nc2N)cc1S(N)(=O)=O` [Compound 27], in that order: 0.631 µM, 0.0794 µM and 7.3.
In the same order, the values of `CC#Cc1cc(Sc2cnc(N)nc2N)c(C(C)C)nc1OC` [Compound 28] are 6.31 µM, 0.794 µM and 7.2.
In the same order, the values of `C#Cc1cc(Sc2cnc(N)nc2N)c(C(C)C)nc1OC` [Compound 29] are 0.2 µM, 0.0501 µM and 3.9.
In the case of `COc1cc(Nc2cnc(N)nc2N)c(C(C)C)cc1OC` [Compound 30], the IC50 is 1.58 µM in assay [2] and 0.0631 µM in assay [1]. For the same molecule, in assay [1], the “Selectivity P2X3/P2X2/3” value was found to be 28.
For `COc1nc(C(C)C)c(Sc2cnc(N)nc2N)cc1SC(F)(F)F` [Compound 31], in that order: > 10 µM, 3.98 µM and >2.5.
For `COc1nc(C(C)C)c(Nc2cnc(N)nc2N)cc1Cl` [Compound 32], in that order: 0.398 µM, 0.01 µM and 34.
Turning to `COc1nc(C(C)C)c(Oc2cnc(N)nc2N)cc1Cl` [Compound 33], in assay [2], the IC50 is 0.794 µM. Also, in assay [1], the IC50 was 0.0251 µM and the “Selectivity P2X3/P2X2/3” value is 26.
For `COc1nc(C(C)C)c(Sc2cnc(N)nc2N)cc1C(F)(F)F` [Compound 34], in that order: 6.31 µM, 0.794 µM and 8.3.
Regarding `COc1nc(C(C)C)c(Nc2cnc(N)nc2N)cc1C(F)(F)F` [Compound 35], the IC50 in assay [2] was 7.94 µM. Besides, in assay [1], the IC50 was 0.0398 µM and the “Selectivity P2X3/P2X2/3” value stood at 198.
For `COc1nc(C(C)C)c(Nc2cnc(N)nc2N)cc1S(C)(=O)=O` [Compound 36], in that order: > 10 µM, 0.0251 µM and >370.
Take `COc1cc(C(C)C)c(Nc2cnc(N)nc2N)cc1S(C)(=O)=O` [Compound 37]: the IC50 in assay [2] was > 10 µM. Moreover, in assay [1], the IC50 was 0.126 µM and the “Selectivity P2X3/P2X2/3” value is on record as >73.
As for `COc1nc(C(C)C)c(Sc2cnc(N)nc2N)cc1Cl` [Compound 38], the IC50 in assay [2] was > 10 µM. Moreover, in assay [1], the IC50 is 0.2 µM and the “Selectivity P2X3/P2X2/3” value is given as >48.
Regarding `COc1cc(C(C)C)c(Nc2cnc(N)nc2N)cc1Cl` [Compound 39], the IC50 in assay [2] was 5.01 µM. Further, in assay [1], the IC50 was 0.0251 µM and the “Selectivity P2X3/P2X2/3” value is listed as 208.
Regarding `COc1cc(C(C)C)c(Nc2cnc(N)nc2N)cc1C(F)(F)F` [Compound 40], the results for the IC50 in assay [2] and in assay [1] were > 10 µM and 0.0794 µM, respectively. In addition, the “Selectivity P2X3/P2X2/3” value in assay [1] is recorded as >123.
Consider `COc1cc(C(C)C)c(Sc2cnc(N)nc2N)cc1Cl` [D, X = S], for which, in assay [1], the “Selectivity, X = S” value is >50.
